Test results published in PMC2916745 (Journal of medicinal chemistry, 2010).

Legend:
[1] = tested on: tamoxifen-resistant breast tumors; conditions: cited from earlier work
human ERβ = human ERβ (Homo sapiens, UniProt Q92731); test: competitive radiometric binding assay with [3H]estradiol, ERβ
human ERα = target: T1, human ERα (Homo sapiens, UniProt P03372); test: competitive radiometric binding assay with [3H]estradiol, ERα; conditions: relative binding affinity, IC50[estradiol]/IC50[compound] × 100, estradiol = 100; 10 nM [3H]estradiol, 18-24 h at 0 °C; average ± range or SD
T1 sequence (P03372 1-595): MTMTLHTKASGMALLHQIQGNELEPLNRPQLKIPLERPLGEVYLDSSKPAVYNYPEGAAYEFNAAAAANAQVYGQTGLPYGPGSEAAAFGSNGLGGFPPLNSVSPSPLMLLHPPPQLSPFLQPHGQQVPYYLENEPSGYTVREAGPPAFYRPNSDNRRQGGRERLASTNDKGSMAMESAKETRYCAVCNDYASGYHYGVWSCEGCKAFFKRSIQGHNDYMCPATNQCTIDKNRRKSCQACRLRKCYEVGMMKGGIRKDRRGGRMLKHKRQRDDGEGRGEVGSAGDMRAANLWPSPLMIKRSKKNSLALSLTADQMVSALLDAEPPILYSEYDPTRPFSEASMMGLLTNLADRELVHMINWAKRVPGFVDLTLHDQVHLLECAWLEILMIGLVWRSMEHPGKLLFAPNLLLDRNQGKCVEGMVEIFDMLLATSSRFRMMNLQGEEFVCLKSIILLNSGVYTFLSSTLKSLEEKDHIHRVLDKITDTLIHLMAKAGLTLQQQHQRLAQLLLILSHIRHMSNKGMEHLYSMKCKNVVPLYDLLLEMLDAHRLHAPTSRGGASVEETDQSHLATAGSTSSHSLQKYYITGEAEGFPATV

ERα-target genes = test: real-time PCR analysis of ERα target genes in MCF-7 cells; type: cell-based, human; conditions: 1 μM compound, 1 nM E2, RNA level
[2] = tested on: tamoxifen-resistant breast cancer cells; conditions: cited from earlier work
[3] = cited from earlier work
[4] = Figure 6B, not fully reversed to control

Sequence of human ERβ (Q92731 whole entry): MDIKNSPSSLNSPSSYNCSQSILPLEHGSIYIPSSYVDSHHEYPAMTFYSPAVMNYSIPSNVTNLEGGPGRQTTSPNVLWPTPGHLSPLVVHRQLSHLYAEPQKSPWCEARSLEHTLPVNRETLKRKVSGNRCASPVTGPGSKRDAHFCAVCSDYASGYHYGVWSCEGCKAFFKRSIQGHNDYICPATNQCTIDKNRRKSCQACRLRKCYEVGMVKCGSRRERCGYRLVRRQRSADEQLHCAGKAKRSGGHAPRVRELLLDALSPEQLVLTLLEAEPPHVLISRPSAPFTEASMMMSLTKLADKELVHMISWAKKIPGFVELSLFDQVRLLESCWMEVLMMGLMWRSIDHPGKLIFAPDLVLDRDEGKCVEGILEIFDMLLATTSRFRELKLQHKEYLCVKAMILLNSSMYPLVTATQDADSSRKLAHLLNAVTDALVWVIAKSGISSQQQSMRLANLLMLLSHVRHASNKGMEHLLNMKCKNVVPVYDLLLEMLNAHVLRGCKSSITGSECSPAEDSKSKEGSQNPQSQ

Question: With `CC/C(=C(\c1ccccc1)c1ccc(/C=C/C(=O)O)cc1)c1ccccc1` [Compound 1] as the compound, how does the “growth of tamoxifen-resistant breast tumors” value [1] read?
Answer: The value was “can inhibit”.

Question: What does the source list for `CC(=O)Oc1ccc(C(=C2CCCCC2)c2ccc(OC(C)=O)cc2)cc1` [Compound 2, cyclofenil]?
Answer: β/α (human ERβ; ratio of RBA values, >1 for higher affinity on ERβ than on ERα): 4.9; RBA ERβ (human ERβ; relative binding affinity, IC50[estradiol]/IC50[compound] × 100, estradiol = 100, 10 nM [3H]estradiol, 18-24 h at 0 °C, average ± range or SD): 334 ± 54; RBA ERα (human ERα): 68 ± 18

Question: Which “E2-mediated activation of the CA12 gene” value (ERα-target genes; Figure 6A) does the source give for `CC/C(=C(\c1ccc(O)cc1)c1ccc(/C=C/C(=O)O)cc1)c1ccccc1` [Compound 4] here?
Answer: Its value is “most effective”.

Question: And the “E2-mediated stimulation of the PR gene” value (ERα-target genes; Figure 6A)?
Answer: Its value is “significantly blocked”.

Question: And the “E2-mediated stimulation of the pS2 gene” value (ERα-target genes; Figure 6A)?
Answer: Its value is “significantly blocked”.

Question: And the “E2-mediated repression of BLNK gene expression” value (ERα-target genes; [4])?
Answer: Its value is “reduce”.

Question: And the “E2-mediated repression of ENC1 gene expression” value (ERα-target genes; [4])?
Answer: Its value is “reduce”.

Question: For `C[C@]12CC[C@@H]3c4ccc(O)cc4C[C@@H](CCCCCCCCC[S+]([O-])CCCC(F)(F)C(F)(F)F)[C@H]3[C@@H]1CC[C@@H]2O` (some centres unmarked) [ICI 182,780], which “growth of tamoxifen-resistant breast cancer cells” value [2] is on record?
Answer: The value was “capable of inhibiting”.

Question: And the oral bioavailability [3]?
Answer: The oral bioavailability was “poor”.
